Legend:
Assay in all cases: relative viability (nuclei count vs DMSO), 5 days (fraction); higher = more cells survive
[1] = test system: 201T
Outline: (§1)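 Five library-drug doses in √10 steps were combined with a fixed anchor-drug dose, or a single drug was given alone, by pin tool to lung cancer cell lines in 1536-well plates the day after seeding. Nuclei were stained and counted after 5 days. Relative viability is the nuclei count in treated wells over that in vehicle wells, taken as the median of duplicate plates.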

[2] = test system: BEN
Outline: as §1

[3] = test system: CAL-12T
Outline: as §1

[4] = test system: HCC-827
Outline: as §1

[5] = test system: HOP-62
Outline: as §1

[6] = test system: LCLC-103H
Outline: as §1

[7] = test system: LCLC-97TM1
Outline: as §1

[8] = test system: LXF-289
Outline: as §1

[9] = test system: NCI-H1395
Outline: as §1

[10] = test system: NCI-H1437
Outline: as §1

[11] = test system: NCI-H1650
Outline: as §1

[12] = test system: NCI-H1793
Outline: as §1

[13] = test system: NCI-H1944
Outline: as §1

[14] = test system: NCI-H2087
Outline: as §1

[15] = test system: NCI-H2228
Outline: as §1

[16] = test system: NCI-H2405
Outline: as §1

[17] = test system: NCI-H3122
Outline: as §1

[18] = test system: NCI-H322M
Outline: as §1

[19] = test system: NCI-H647
Outline: as §1

[20] = test system: NCI-H727
Outline: as §1

[21] = test system: RERF-LC-KJ
Outline: as §1

[22] = test system: SK-LU-1
Outline: as §1

Question: What does the source list for `O=C(O)c1ccc(-c2c[nH]c3ncc(-c4ccccc4)cc23)cc1C1CCCC1` + COc1cc2c(Oc3ccc(NC(=O)C4(C(=O)Nc5ccc(F)cc5)CC4)cc3F)ccnc2cc1OCCCN1CCOCC1 [Foretinib] (partner 0.25 µM)?
Answer: relative viability ([1]; first compound 0.04 µM): 1.29; relative viability ([1]; first compound 0.1265 µM): 1.25; relative viability ([1]; first compound 0.4 µM): 1.11; relative viability ([1]; first compound 1.265 µM): 0.958; relative viability ([2]; first compound 0.04 µM): 0.586; relative viability ([2]; first compound 0.1265 µM): 0.854; relative viability ([2]; first compound 0.4 µM): 0.937; relative viability ([2]; first compound 1.265 µM): 0.765; relative viability ([3]; first compound 0.04 µM): 1.22; relative viability ([3]; first compound 0.1265 µM): 1.07; relative viability ([3]; first compound 0.4 µM): 1.13; relative viability ([3]; first compound 1.265 µM): 0.997; relative viability ([4]; first compound 0.04 µM): 0.914; relative viability ([4]; first compound 0.1265 µM): 1.08; relative viability ([4]; first compound 0.4 µM): 0.957; relative viability ([4]; first compound 1.265 µM): 0.543; relative viability ([5]; first compound 0.04 µM): 1.09; relative viability ([5]; first compound 0.1265 µM): 1.21; relative viability ([5]; first compound 0.4 µM): 1.01; relative viability ([5]; first compound 1.265 µM): 0.815; relative viability ([6]; first compound 0.04 µM): 0.702; relative viability ([6]; first compound 0.1265 µM): 0.793; relative viability ([6]; first compound 0.4 µM): 0.613; relative viability ([6]; first compound 1.265 µM): 0.507; relative viability ([7]; first compound 0.04 µM): 0.911; relative viability ([7]; first compound 0.1265 µM): 1.03; relative viability ([7]; first compound 0.4 µM): 0.892; relative viability ([7]; first compound 1.265 µM): 0.525; relative viability ([8]; first compound 0.04 µM): 0.972; relative viability ([8]; first compound 0.1265 µM): 0.939; relative viability ([8]; first compound 0.4 µM): 0.867; relative viability ([8]; first compound 1.265 µM): 0.543; relative viability ([9]; first compound 0.04 µM): 0.983; relative viability ([9]; first compound 0.1265 µM): 1.05; relative viability ([9]; first compound 0.4 µM): 1.01; relative viability ([9]; first compound 1.265 µM): 0.944; relative viability ([10]; first compound 0.04 µM): 1.25; relative viability ([10]; first compound 0.1265 µM): 1.19; relative viability ([10]; first compound 0.4 µM): 1.11; relative viability ([10]; first compound 1.265 µM): 0.923; relative viability ([11]; first compound 0.04 µM): 1.22; relative viability ([11]; first compound 0.1265 µM): 1.57; relative viability ([11]; first compound 0.4 µM): 1.6; relative viability ([11]; first compound 1.265 µM): 1.14; relative viability ([12]; first compound 0.04 µM): 0.66; relative viability ([12]; first compound 0.1265 µM): 0.75; relative viability ([12]; first compound 0.4 µM): 0.702; relative viability ([12]; first compound 1.265 µM): 0.602; relative viability ([13]; first compound 0.04 µM): 0.923; relative viability ([13]; first compound 0.1265 µM): 0.988; relative viability ([13]; first compound 0.4 µM): 0.911; relative viability ([13]; first compound 1.265 µM): 0.807; relative viability ([14]; first compound 0.04 µM): 0.933; relative viability ([14]; first compound 0.1265 µM): 1.16; relative viability ([14]; first compound 0.4 µM): 1.06; relative viability ([14]; first compound 1.265 µM): 0.901; relative viability ([15]; first compound 0.04 µM): 0.783; relative viability ([15]; first compound 0.1265 µM): 0.915; relative viability ([15]; first compound 0.4 µM): 0.871; relative viability ([15]; first compound 1.265 µM): 0.576; relative viability ([16]; first compound 0.04 µM): 1.05; relative viability ([16]; first compound 0.1265 µM): 1.1; relative viability ([16]; first compound 0.4 µM): 1.02; relative viability ([16]; first compound 1.265 µM): 0.747; relative viability ([17]; first compound 0.04 µM): 0.968; relative viability ([17]; first compound 0.1265 µM): 0.913; relative viability ([17]; first compound 0.4 µM): 0.891; relative viability ([17]; first compound 1.265 µM): 0.87; relative viability ([18]; first compound 0.04 µM): 1.02; relative viability ([18]; first compound 0.1265 µM): 1.03; relative viability ([18]; first compound 0.4 µM): 0.993; relative viability ([18]; first compound 1.265 µM): 0.824; relative viability ([19]; first compound 0.04 µM): 1.33; relative viability ([19]; first compound 0.1265 µM): 1.35; relative viability ([19]; first compound 0.4 µM): 1.14; relative viability ([19]; first compound 1.265 µM): 0.965; relative viability ([20]; first compound 0.04 µM): 1.2; relative viability ([20]; first compound 0.1265 µM): 0.823; relative viability ([20]; first compound 0.4 µM): 0.754; relative viability ([20]; first compound 1.265 µM): 0.944; relative viability ([21]; first compound 0.04 µM): 0.86; relative viability ([21]; first compound 0.1265 µM): 0.865; relative viability ([21]; first compound 0.4 µM): 0.933; relative viability ([21]; first compound 1.265 µM): 0.837; relative viability ([22]; first compound 0.04 µM): 0.782; relative viability ([22]; first compound 0.1265 µM): 0.875; relative viability ([22]; first compound 0.4 µM): 0.705; relative viability ([22]; first compound 1.265 µM): 0.51

— the supplement of paper PMC10307832
